Source: patent US7776863B2, “Methods of treating HIV infection” (priority 2004, dated 2010)

Tested on: HIV-1 LAI
Test: microbe, parasite or virus in culture
Details: for Combination Indices at % HIV Inhibition (Confidence Interval) 50% / Combination Indices at % HIV Inhibition (Confidence Interval) 75% / Combination Indices at % HIV Inhibition (Confidence Interval) 90%: 95% confidence interval in parentheses; for Overall Result (combined anti-HIV effect): all ratios, MT-2 cells, HIV-1 LAI; for EC50: Human immunodeficiency virus 1, MT2, 120 h
Method: Virus and cell lines. The T-cell lines, MT-2 and PM-1 were obtained through the AIDS Research and Reference Reagent Program, NIAID, and were contributed by Dr. D. Richman and Dr. R. Gallo, respectively. Both cell lines were cultured in RPMI 1640 medium supplemented with 10% fetal bovine serum, 2 mM L-glutamine and sub-cultured twice a week. The LAI strain of HIV-1 was obtained from the Fred Hutchinson Cancer Research Center, and the Bal strain was from NIH. Both virus stocks were amplified and titered in MT-2 cells (LAI) and PM-1 cells (Bal) using a virus infectivity assay.
Drug Susceptibility and Cytotoxicity Assays. For drug susceptibility assays, MT-2 cells were infected with HIV-1 LAI (or PM-1 cells with HIV-1 Bal) at an MOI of 0.005, and seeded into 96-well microtiter plates (0.1×10^6 cells/ml) containing serial dilutions of test compounds. […] Each drug ratio consisted of an array of 3-fold serial dilutions, and was performed in quadruplicate. The plates were incubated at 37° C./5% CO2. The MT-2 cells infected with HIV-1 LAI were incubated for 5 days. On day-five post-infection, 20 μl from each well was harvested and quantitated by a reverse transcriptase (RT) assay, or in samples involving non-nucleoside RT inhibitors, an MTS assay. The PM-1 cells infected with HIV-1 Bal and used for studying the combinations with CCR5 inhibitors were incubated for six days. On day-six post-infection, 20 μl from each well was harvested, 20- and 50-fold diluted and quantitated by p24 assay. Cytotoxicity assays were performed using uninfected cells, exposed to the same drug combinations, and incubated for six days. Cell viability was determined by an MTS assay. The CC50 values were calculated by using the exponential form of the median effect equation as mentioned below for calculation of EC50.
Analysis of Drug Combination Effects. For determination of CI values, drugs were diluted in a fixed ratio and multiple ratios were analyzed. The drug serial dilutions spanned a range of concentrations near the EC50 value of each compound, so that equivalent antiviral activities could be compared. Concentration-response curves were estimated for each individual drug and every combination using the median-effect equation. The equation was fit using a nonlinear regression routine (Proc Nlin) in PC SAS version 8.01 (SAS Institute Inc., SAS Version 8.01, Cary, N.C.: SAS Institute Inc., 1990).
In this equation, Fa stands for “fraction affected,” and represents the fraction of the viral load that has been inactivated. […] ED50 is drug concentration that is expected to reduce the amount of virus by 50%, and m is a parameter that reflects the slope of the concentration-response curve.
To assess antiviral effects of different drug combination treatments, combination indices (CIs) were calculated according to Chou and Rideout. The combination index was computed as CI=[D]1/[Dm]1+[D]2/[Dm]2
In this equation [Dm]1 and [Dm]2 are the concentrations of drugs that would individually produce a specific level of effect, while [D]1 and [D]2 are the concentrations of drugs in combination that would produce the same level of effect.
Theoretically, additivity is implied if the CI is equal to one, synergy if the CI is less than one, and antagonism if the CI is greater than one. […] At best, we can construct a range that contains the likely values for the CI, given the noise in the data. In this report, these ranges are reported in parentheses next to each point estimate of the CI. […] If the range fell entirely above 1.0, we would infer antagonistic behavior. If the range were to include 1.0, we would infer additivity.
In carrying out the combination experiments below, the EC50 for Compound 1 and each comparator compound was determined during the course of each study, and used in the subsequent data analysis.

[1] = Compound 1 + named drug, EC50 ratio 1:1 (Compound 1:comparator)
[2] = Compound 1 + named drug, EC50 ratio 1:2.5 (Compound 1:comparator)
[3] = Compound 1 + named drug, EC50 ratio 2.5:1 (Compound 1:comparator)

Nc1ccn([C@H]2CC[C@@H](CO)O2)c(=O)n1 [Zalcitabine, zalcitabine]
Combination Indices at % HIV Inhibition (Confidence Interval) 50% [1]: 0.58 (0.46, 0.69) | Combination Indices at % HIV Inhibition (Confidence Interval) 75% [1]: 0.61 (0.43, 0.78) | Combination Indices at % HIV Inhibition (Confidence Interval) 90% [1]: 0.69 (0.39, 1.00) | Combination Indices at % HIV Inhibition (Confidence Interval) 75% [2]: 0.56 (0.44, 0.68) | Combination Indices at % HIV Inhibition (Confidence Interval) 90% [2]: 0.65 (0.43, 0.86) | Combination Indices at % HIV Inhibition (Confidence Interval) 50% [3]: 0.24 (0.22, 0.26) | Combination Indices at % HIV Inhibition (Confidence Interval) 75% [3]: 0.18 (0.16, 0.20) | Combination Indices at % HIV Inhibition (Confidence Interval) 90% [3]: 0.14 (0.12, 0.17) | Overall Result (combined anti-HIV effect) (Compound 1 + named drug): Synergistic | EC50: 34 nM

COc1cnc(-n2cnc(C)n2)c2[nH]cc(C(=O)C(=O)N3CCN(C(=O)c4ccccc4)CC3)c12 [Compound 1, 1-Benzoyl-4-[2-[4-methoxy-7-(3-methyl-1H-1,2,4-triazol-1-yl)-1H-pyrrolo[2,3-c]pyridin-3-yl]-1,2-dioxoethyl]-piperazine]
EC50: 0.1 to 0.3 nM

Cc1c(O)cccc1C(=O)N[C@@H](CSc1ccccc1)[C@H](O)CN1C[C@H]2CCCC[C@H]2C[C@H]1C(=O)NC(C)(C)C [Nelfinavir, nelfinavir]
Combination Indices at % HIV Inhibition (Confidence Interval) 50% [1]: 0.39 (0.34, 0.44) | Combination Indices at % HIV Inhibition (Confidence Interval) 75% [1]: 0.47 (0.39, 0.56) | Combination Indices at % HIV Inhibition (Confidence Interval) 90% [1]: 0.58 (0.41, 0.74) | Combination Indices at % HIV Inhibition (Confidence Interval) 50% [2]: 0.41 (0.32, 0.50) | Combination Indices at % HIV Inhibition (Confidence Interval) 75% [2]: 0.81 (0.57, 1.05) | Combination Indices at % HIV Inhibition (Confidence Interval) 90% [2]: 1.61 (0.84, 2.37) | Combination Indices at % HIV Inhibition (Confidence Interval) 50% [3]: 0.12 (0.09, 0.15) | Combination Indices at % HIV Inhibition (Confidence Interval) 75% [3]: 0.32 (0.22, 0.42) | Combination Indices at % HIV Inhibition (Confidence Interval) 90% [3]: 0.87 (0.38, 1.35) | Overall Result (combined anti-HIV effect) (Compound 1 + named drug): Additive- | EC50: 3 nM

c1cc(CN2CCCNCCNCCCNCC2)ccc1CN1CCCNCCNCCCNCC1 [AMD-3100]
Combined effect at 90% inhibition level (Compound 1 + named drug): tendency to additivity | Combined effect at the 50 and 75% inhibition levels (Compound 1 + named drug): strongly synergistic | Combination Indices at % HIV Inhibition (Confidence Interval) 50% [1]: 0.44 (0.29, 0.60) | Combination Indices at % HIV Inhibition (Confidence Interval) 75% [1]: 0.62 (0.31, 0.92) | Combination Indices at % HIV Inhibition (Confidence Interval) 90% [1]: 0.98 (0.21, 1.76) | Combination Indices at % HIV Inhibition (Confidence Interval) 50% [2]: 0.56 (0.42, 0.70) | Combination Indices at % HIV Inhibition (Confidence Interval) 75% [2]: 0.54 (0.35, 0.73) | Combination Indices at % HIV Inhibition (Confidence Interval) 90% [2]: 0.66 (0.29, 1.02) | Combination Indices at % HIV Inhibition (Confidence Interval) 50% [3]: 0.52 (0.36, 0.68) | Combination Indices at % HIV Inhibition (Confidence Interval) 75% [3]: 0.61 (0.35, 0.88) | Combination Indices at % HIV Inhibition (Confidence Interval) 90% [3]: 0.77 (0.24, 1.31) | EC50: 5 nM

Cc1cn([C@H]2C=C[C@@H](CO)O2)c(=O)[nH]c1=O [Stavudine, stavudine]
Combination Indices at % HIV Inhibition (Confidence Interval) 50% [1]: 0.52 (0.40, 0.64) | Combination Indices at % HIV Inhibition (Confidence Interval) 75% [1]: 0.60 (0.41, 0.80) | Combination Indices at % HIV Inhibition (Confidence Interval) 90% [1]: 0.75 (0.36, 1.14) | Combination Indices at % HIV Inhibition (Confidence Interval) 50% [2]: 0.38 (0.31, 0.45) | Combination Indices at % HIV Inhibition (Confidence Interval) 75% [2]: 0.37 (0.28, 0.46) | Combination Indices at % HIV Inhibition (Confidence Interval) 90% [2]: 0.40 (0.23, 0.56) | Combination Indices at % HIV Inhibition (Confidence Interval) 50% [3]: 0.69 (0.51, 0.88) | Combination Indices at % HIV Inhibition (Confidence Interval) 75% [3]: 0.78 (0.49, 1.07) | Combination Indices at % HIV Inhibition (Confidence Interval) 90% [3]: 0.92 (0.36, 1.48) | Overall Result (combined anti-HIV effect) (Compound 1 + named drug): Moderate- | EC50: 72 nM

COC(=O)N[C@H](C(=O)N[C@@H](Cc1ccccc1)[C@@H](O)CN(Cc1ccc(-c2ccccn2)cc1)NC(=O)[C@@H](NC(=O)OC)C(C)(C)C)C(C)(C)C [Atazanavir, atazanavir]
Combination Indices at % HIV Inhibition (Confidence Interval) 50% [1]: 0.53 (0.46, 0.60) | Combination Indices at % HIV Inhibition (Confidence Interval) 90% [1]: 0.90 (0.64, 1.17) | Combination Indices at % HIV Inhibition (Confidence Interval) 75% [2]: 0.49 (0.29, 0.69) | Combination Indices at % HIV Inhibition (Confidence Interval) 90% [2]: 1.17 (0.38, 1.95) | Combination Indices at % HIV Inhibition (Confidence Interval) 50% [3]: 0.34 (0.26, 0.42) | Combination Indices at % HIV Inhibition (Confidence Interval) 75% [3]: 0.56 (0.38, 0.74) | Combination Indices at % HIV Inhibition (Confidence Interval) 90% [3]: 0.97 (0.46, 1.48) | Overall Result (combined anti-HIV effect) (Compound 1 + named drug): Additive- | EC50: 0.7 nM

Cc1cccc(C)c1OCC(=O)N[C@@H](Cc1ccccc1)[C@@H](O)C[C@H](Cc1ccccc1)NC(=O)[C@H](C(C)C)N1CCCNC1=O [Lopinavir, lopinavir]
Combination Indices at % HIV Inhibition (Confidence Interval) 50% [1]: 0.47 (0.38, 0.56) | Combination Indices at % HIV Inhibition (Confidence Interval) 75% [1]: 0.66 (0.48, 0.84) | Combination Indices at % HIV Inhibition (Confidence Interval) 50% [2]: 0.89 (0.73, 1.05) | Combination Indices at % HIV Inhibition (Confidence Interval) 75% [2]: 0.90 (0.67, 1.13) | Combination Indices at % HIV Inhibition (Confidence Interval) 90% [2]: 1.00 (0.60, 1.40) | Combination Indices at % HIV Inhibition (Confidence Interval) 50% [3]: 0.29 (0.25, 0.33) | Combination Indices at % HIV Inhibition (Confidence Interval) 75% [3]: 0.37 (0.30, 0.44) | Combination Indices at % HIV Inhibition (Confidence Interval) 90% [3]: 0.51 (0.37, 0.65) | Overall Result (combined anti-HIV effect) (Compound 1 + named drug): Additive- | EC50: 4 nM

Nc1nc(=O)n([C@@H]2CS[C@H](CO)O2)cc1F [Emtricitabine, emtricitabine]
Combination Indices at % HIV Inhibition (Confidence Interval) 50% [1]: 0.42 (0.35, 0.50) | Combination Indices at % HIV Inhibition (Confidence Interval) 75% [1]: 0.49 (0.37, 0.61) | Combination Indices at % HIV Inhibition (Confidence Interval) 50% [2]: 0.19 (0.15, 0.22) | Combination Indices at % HIV Inhibition (Confidence Interval) 75% [2]: 0.35 (0.26, 0.44) | Combination Indices at % HIV Inhibition (Confidence Interval) 90% [2]: 0.67 (0.36, 0.99) | Combination Indices at % HIV Inhibition (Confidence Interval) 50% [3]: 0.11 (0.09, 0.12) | Combination Indices at % HIV Inhibition (Confidence Interval) 75% [3]: 0.26 (0.21, 0.31) | Combination Indices at % HIV Inhibition (Confidence Interval) 90% [3]: 0.67 (0.44, 0.89) | Overall Result (combined anti-HIV effect) (Compound 1 + named drug): Synergistic | EC50: 25 nM

Nc1nc(NC2CC2)c2ncn([C@H]3C=C[C@@H](CO)C3)c2n1 [Abacavir, abacavir]
Combination Indices at % HIV Inhibition (Confidence Interval) 50% [1]: 0.69 (0.49, 0.89) | Combination Indices at % HIV Inhibition (Confidence Interval) 75% [1]: 0.77 (0.46, 1.09) | Combination Indices at % HIV Inhibition (Confidence Interval) 90% [1]: 0.87 (0.30, 1.44) | Combination Indices at % HIV Inhibition (Confidence Interval) 50% [2]: 0.56 (0.45, 0.67) | Combination Indices at % HIV Inhibition (Confidence Interval) 90% [2]: 0.48 (0.27, 0.68) | Combination Indices at % HIV Inhibition (Confidence Interval) 50% [3]: 0.10 (0.05, 0.14) | Combination Indices at % HIV Inhibition (Confidence Interval) 75% [3]: 0.27 (0.16, 0.39) | Overall Result (combined anti-HIV effect) (Compound 1 + named drug): Additive- | EC50: 326 nM
